Measurements reported in publication PMC7155171, “Probing the Open Global Health Chemical Diversity Library for Multistage-Active Starting Points for Next-Generation Antimalarials” (ACS Infectious Diseases, 2020).
Where two headings read alike, the source gives them in different places.

Experiments:
[1] = test system: P. berghei liver stage (PbLuc); experiment: P. berghei luciferase liver stage (PbLuc) assay in HepG2-A16-CD81 hepatocytes; type: cell-based, Plasmodium berghei; conditions: Plasmodium berghei; for Emax: 12pt dose response, maximum inhibition
[2] = biological target: recombinant firefly luciferase (Photinus pyralis, UniProt P08659); experiment: biochemical
recombinant firefly luciferase, sequence (P08659 whole entry): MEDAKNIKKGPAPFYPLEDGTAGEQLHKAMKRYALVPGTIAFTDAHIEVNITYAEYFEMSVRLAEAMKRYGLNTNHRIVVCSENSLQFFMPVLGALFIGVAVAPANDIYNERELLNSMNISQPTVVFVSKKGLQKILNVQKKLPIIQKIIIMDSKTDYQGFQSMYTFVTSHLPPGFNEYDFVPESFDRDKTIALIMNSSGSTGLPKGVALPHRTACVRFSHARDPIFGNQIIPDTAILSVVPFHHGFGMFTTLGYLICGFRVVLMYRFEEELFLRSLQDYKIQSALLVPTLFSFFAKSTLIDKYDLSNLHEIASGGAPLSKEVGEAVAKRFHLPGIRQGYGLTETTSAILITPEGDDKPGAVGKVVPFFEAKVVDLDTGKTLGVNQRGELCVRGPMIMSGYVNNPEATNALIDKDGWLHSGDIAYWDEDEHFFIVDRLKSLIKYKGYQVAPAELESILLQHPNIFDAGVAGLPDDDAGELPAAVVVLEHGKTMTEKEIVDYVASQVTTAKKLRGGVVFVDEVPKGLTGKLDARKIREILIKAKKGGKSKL

[3] = test system: HepG2-A16-CD81 hepatocytes; experiment: HepG2 cytotoxicity screening (CellTiter-Glo); conditions: for IC50: HepG2-A16-CD81, read-out: HepG2 tox IC50; for HepG2 cytotoxicity 12pt dose response: Maximum inhibition (%): 12pt dose response
[4] = HepG2 cytotoxicity screening (CellTiter-Glo); conditions: human, uninfected HepG2-A16-CD81 (EGFP) hepatocytes
[5] = HepG2-A16-CD81, 48 h, 48 h liver stage, HepG2-A16-CD81, read-out: Pbluc (EEF) IC50
[6] = HepG2-A16-CD81, 12pt dose response, read-out: PbLuc 12pt dose response: IC50

SMILES: O=c1c2sccc2nc2n1CCN(Cc1ccccc1C(F)(F)F)CC2 [DDD01059968]
- IC50 [1, 5]: 6.77 µM
- IC50 ([2]; read-out: rLuc IC50): > 25 µM
- IC50 [3]: > 25 µM

SMILES: Cc1ccc(CN2CCCC3(CCN(Cc4ccoc4)CC3)C2)cc1 [UCSD-0791105]
- IC50 [1, 6]: 7.88 µM
- Emax ([1]; HepG2-A16-CD81, 48 h): 99.9%
- IC50 [4]: 43.8 µM
- inhibition at 2 µM [4]: -2.23%
- HepG2 cytotoxicity 12pt dose response: Maximum inhibition (%) [3]: 55.5%

SMILES: CCS(=O)(=O)N1CCc2ccc(NC(=O)Nc3cccc(C)c3)cc21 [DDD01025922]
- IC50 [1, 5]: 3.66 µM
- IC50 ([2]; read-out: rLuc IC50): > 50 µM
- IC50 [3]: 16.6 µM

SMILES: CCc1nc(CN2CCCN(c3ncnc4ccccc34)CC2)no1 [DDD01080636]
- IC50 [1, 5]: 0.691 µM
- IC50 ([2]; read-out: rLuc IC50): > 50 µM
- IC50 [3]: 1.85 µM

SMILES: COc1ccc(F)c(CN2CCCC(O)(CNCC(C)(C)C)C2=O)c1 (stereo not drawn) [UCSD-0830878]
- IC50 [1, 6]: 44.7 µM
- Emax ([1]; HepG2-A16-CD81, 48 h): 86.4%
- IC50 [4]: > 50 µM
- inhibition at 2 µM [4]: 5.34%
- HepG2 cytotoxicity 12pt dose response: Maximum inhibition (%) [3]: -11.6%

SMILES: CCc1nc(CN2CCCN(c3ncnc4ccsc34)CC2)no1 [UCSD-0620395]
- IC50 [1, 6]: 9.87 µM
- IC50 [4]: > 50 µM
- inhibition at 2 µM [4]: 12.5%
- HepG2 cytotoxicity 12pt dose response: Maximum inhibition (%) [3]: 49.7%

SMILES: Cc1csc2ncnc(N3CCC(Cn4cc(C(C)(C)O)nn4)CC3)c12 [UCSD-0835726]
- IC50 [1, 6]: 4.82 µM
- Emax ([1]; HepG2-A16-CD81, 48 h): 82.1%
- Emax ([2]; dose response, maximum inhibition, read-out: rLuc inhibition dose response: Maximum inhibition (%)): 5.67%
- IC50 ([2]; dose response, read-out: rLuc inhibition dose response: IC50): > 25 µM
- IC50 [4]: > 25 µM
- inhibition at 2 µM [4]: 4.96%

SMILES: Cc1ncsc1C(=O)NC1CCN(Cc2ccc(C(F)(F)F)cc2)CC1 [UCSD-0842554]
- IC50 [1, 6]: 14.2 µM
- Emax ([1]; HepG2-A16-CD81, 48 h): 87.4%
- IC50 [4]: > 50 µM
- inhibition at 2 µM [4]: 9.14%
- HepG2 cytotoxicity 12pt dose response: Maximum inhibition (%) [3]: 41.9%

SMILES: Cc1n[nH]c(CN2CCN(c3ncnc4scc(C)c34)CC2)c1Cl [UCSD-0836325]
- IC50 [1, 6]: 4.49 µM
- Emax ([1]; HepG2-A16-CD81, 48 h): 96%
- IC50 [4]: > 16.6 µM
- inhibition at 2 µM [4]: 27.1%
- HepG2 cytotoxicity 12pt dose response: Maximum inhibition (%) [3]: 66.1%

SMILES: CN1CCCC(CCC(=O)N2CCc3sc(C(=O)N(C)C)cc3C2)C1 (stereo not drawn) [UCSD-0833754]
- IC50 [1, 6]: > 50 µM
- Emax ([1]; HepG2-A16-CD81, 48 h): 38.7%
- IC50 [4]: > 50 µM
- inhibition at 2 µM [4]: -1.19%
- HepG2 cytotoxicity 12pt dose response: Maximum inhibition (%) [3]: 3.22%

SMILES: CCOc1ccccc1CNC(=O)NCC(c1cnn(C)c1)N(C)C (stereo not drawn) [UCSD-0816742]
- IC50 [1, 6]: > 50 µM
- Emax ([1]; HepG2-A16-CD81, 48 h): 36.1%
- IC50 [4]: > 50 µM
- inhibition at 2 µM [4]: 13.9%
- HepG2 cytotoxicity 12pt dose response: Maximum inhibition (%) [3]: -5.65%

SMILES: O=C(O)CSc1nnc(-c2cn[nH]c2)n1-c1ccccc1C(F)(F)F [UCSD-0830442]
- IC50 [1, 6]: 5.54 µM
- IC50 [4]: > 50 µM
- inhibition at 2 µM [4]: 6.23%
- HepG2 cytotoxicity 12pt dose response: Maximum inhibition (%) [3]: 4.76%

SMILES: Cc1n[nH]cc1CNC1CCN(c2cccc(C(F)(F)F)c2)CC1 [UCSD-0814169]
- IC50 [1, 6]: 9.3 µM
- Emax ([1]; HepG2-A16-CD81, 48 h): 88.9%
- IC50 [4]: > 50 µM
- inhibition at 2 µM [4]: -9.01%
- HepG2 cytotoxicity 12pt dose response: Maximum inhibition (%) [3]: 7.17%

SMILES: CC(=O)Nc1nc(C(=O)N2CCCC(n3cncn3)C2)cs1 (stereo not drawn) [UCSD-0843277]
- IC50 [1, 6]: 21.5 µM
- Emax ([1]; HepG2-A16-CD81, 48 h): 81.2%
- IC50 [4]: > 50 µM
- inhibition at 2 µM [4]: -7.07%
- HepG2 cytotoxicity 12pt dose response: Maximum inhibition (%) [3]: -5.65%

SMILES: CCCc1cc(=O)[nH]c(-n2nc(C3CC3)cc2N)n1 [DDD01027468]
- IC50 [1, 5]: 4.69 µM
- IC50 ([2]; read-out: rLuc IC50): > 25 µM
- IC50 [3]: 20.5 µM

SMILES: Cc1ccc2cc(C3(O)CCN(C(=O)CSC(C)C)CC3)ccc2n1 [UCSD-0827397]
- IC50 [1, 6]: 16.9 µM
- IC50 [4]: > 50 µM
- inhibition at 2 µM [4]: 33.3%
- HepG2 cytotoxicity 12pt dose response: Maximum inhibition (%) [3]: 39.9%

SMILES: CC(C)(C)c1nc(CN2CCCC(Cn3cncn3)C2)cs1 (stereo not drawn) [UCSD-0846727]
- IC50 [1, 6]: > 50 µM
- Emax ([1]; HepG2-A16-CD81, 48 h): 24.9%
- IC50 [4]: > 50 µM
- inhibition at 2 µM [4]: 5.83%
- HepG2 cytotoxicity 12pt dose response: Maximum inhibition (%) [3]: -16.6%

SMILES: NCC1CCN(C2CCN(c3ccc(-c4ccco4)cc3)CC2)C1 (stereo not drawn) [UCSD-0833151]
- IC50 [1, 6]: 4.7 µM
- Emax ([1]; HepG2-A16-CD81, 48 h): 99.4%
- IC50 [4]: 14.1 µM
- inhibition at 2 µM [4]: 3.93%

SMILES: CC(C)CC(=O)NCc1cccc(OCCN(C)C2CCOCC2)c1 [UCSD-0810838]
- IC50 [1, 6]: > 50 µM
- Emax ([1]; HepG2-A16-CD81, 48 h): 39.1%
- IC50 [4]: > 50 µM
- inhibition at 2 µM [4]: 38.8%
- HepG2 cytotoxicity 12pt dose response: Maximum inhibition (%) [3]: 7.9%

SMILES: COc1ccccc1C1CCN(c2ccc3cc[nH]c3n2)CC1 [UCSD-0836069]
- IC50 [1, 6]: 3.52 µM
- Emax ([1]; HepG2-A16-CD81, 48 h): 93.5%
- IC50 [4]: 31.8 µM
- inhibition at 2 µM [4]: 5.11%
- HepG2 cytotoxicity 12pt dose response: Maximum inhibition (%) [3]: 60.6%

SMILES: Cc1nc(NCc2nonc2C)cc(C(C)Cn2nc(C)c(C)c2C)n1 (stereo not drawn) [UCSD-0799497]
- inhibition at 10 µM ([1]; HepG2-A16-CD81, primary screen, 10 uM): 60.2%
- inhibition at 2 µM [4]: 87.2%

SMILES: Cc1cccc(NCc2ncc(C(C)(C)C)o2)c1 [UCSD-0816980]
- IC50 [1, 6]: 16.6 µM
- Emax ([1]; HepG2-A16-CD81, 48 h): 73.4%
- IC50 [4]: > 50 µM
- inhibition at 2 µM [4]: 14.1%
- HepG2 cytotoxicity 12pt dose response: Maximum inhibition (%) [3]: 11.5%

SMILES: CCc1ccccc1OC1CN(C(=O)c2ccnc(OC)c2)C1 [UCSD-0824378]
- IC50 [1, 6]: 16.6 µM
- Emax ([1]; HepG2-A16-CD81, 48 h): 80.5%
- IC50 [4]: > 50 µM
- inhibition at 2 µM [4]: 8.15%
- HepG2 cytotoxicity 12pt dose response: Maximum inhibition (%) [3]: 46.8%

SMILES: CCc1nc(CN2CCCN(c3ncnc4ccsc34)CC2)no1 [DDD01071387]
- IC50 [1, 5]: 9.87 µM
- IC50 [3]: > 50 µM

SMILES: NC(=O)C1CN(C(=O)Nc2cc(Cl)cc(Cl)c2)CCO1 (stereo not drawn) [UCSD-0586016]
- IC50 [1, 6]: 1.39 µM
- Emax ([1]; HepG2-A16-CD81, 48 h): 102%
- IC50 [4]: 16.9 µM
- inhibition at 2 µM [4]: 11.4%
- HepG2 cytotoxicity 12pt dose response: Maximum inhibition (%) [3]: 92.5%

SMILES: Cc1cccc(NC(=O)c2[nH]nc(C(C)C)c2Br)n1 [UCSD-0842406]
- IC50 [1, 6]: 0.0268 µM
- Emax ([1]; HepG2-A16-CD81, 48 h): 101%
- IC50 [4]: > 50 µM
- inhibition at 2 µM [4]: 17.4%
- HepG2 cytotoxicity 12pt dose response: Maximum inhibition (%) [3]: 40.5%

SMILES: CN(CCc1ccncc1)CCc1nccs1 [UCSD-0805829]
- IC50 [1, 6]: 0.495 µM
- Emax ([1]; HepG2-A16-CD81, 48 h): 87.7%
- IC50 [4]: > 50 µM
- inhibition at 2 µM [4]: 2.05%
- HepG2 cytotoxicity 12pt dose response: Maximum inhibition (%) [3]: -1.84%

SMILES: COc1ccc(OCCN2CCC(N3CCNC3=O)CC2)cc1 [UCSD-0840477]
- IC50 [1, 6]: 21.2 µM
- Emax ([1]; HepG2-A16-CD81, 48 h): 62.9%
- IC50 [4]: > 50 µM
- inhibition at 2 µM [4]: 38.5%
- HepG2 cytotoxicity 12pt dose response: Maximum inhibition (%) [3]: 42.1%

SMILES: NC(=O)CCn1cc(CNCc2csc(N)n2)c2ccccc21 [UCSD-0835992]
- IC50 [1, 6]: > 50 µM
- Emax ([1]; HepG2-A16-CD81, 48 h): 17.4%
- IC50 [4]: > 50 µM
- inhibition at 2 µM [4]: 9.68%
- HepG2 cytotoxicity 12pt dose response: Maximum inhibition (%) [3]: 10.2%

SMILES: O=C(O)c1cccnc1N1CCN(Cc2ccc(F)cc2)C(CCO)C1 (stereo not drawn) [UCSD-0826099]
- IC50 [1, 6]: > 50 µM
- Emax ([1]; HepG2-A16-CD81, 48 h): 46.3%
- IC50 [4]: > 50 µM
- inhibition at 2 µM [4]: 9.42%
- HepG2 cytotoxicity 12pt dose response: Maximum inhibition (%) [3]: 4.04%

SMILES: CCn1ccnc1CNCC(c1ccc(C)s1)N1CCOCC1 (stereo not drawn) [UCSD-0810145]
- IC50 [1, 6]: 38.3 µM
- Emax ([1]; HepG2-A16-CD81, 48 h): 88.9%
- IC50 [4]: 46.2 µM
- inhibition at 2 µM [4]: 16.3%
- HepG2 cytotoxicity 12pt dose response: Maximum inhibition (%) [3]: 56.3%

SMILES: C[C@H](c1ccc(F)cc1)n1c(C2CCN(C)CC2)n[nH]c1=O [UCSD-0830237]
- IC50 [1, 6]: 3.28 µM
- Emax ([1]; HepG2-A16-CD81, 48 h): 86.3%
- IC50 [4]: > 50 µM
- inhibition at 2 µM [4]: 3.06%
- HepG2 cytotoxicity 12pt dose response: Maximum inhibition (%) [3]: 8.15%

SMILES: COc1cccc(CN2CCC(CO)(Cc3ccc(Cl)cc3)CC2)c1O [UCSD-0828601]
- IC50 [1, 6]: 4.59 µM
- Emax ([1]; HepG2-A16-CD81, 48 h): 95%
- IC50 [4]: 12.2 µM
- inhibition at 2 µM [4]: 2.59%
- HepG2 cytotoxicity 12pt dose response: Maximum inhibition (%) [3]: 82.8%

SMILES: Cc1ccc(NC(=O)CNC(C)CN2CCCCC2)c(F)c1 (stereo not drawn) [UCSD-0831198]
- inhibition at 2 µM [4]: -1.94%

SMILES: CCn1nc(C)c2c1cnn2CCNS(=O)(=O)c1cccs1 [UCSD-0797219]
- inhibition at 2 µM [4]: -1.63%
